{"source": "patent US7118895B2", "about": "“Process for producing aglycon by using diglycosidase and flavor-improved food containing the aglycon and converting agent to be used in the process” (Amano Enzyme Inc., priority 2000, dated 2006)", "tested_on": "Crude diglycosidase", "experiment": "Examination of pH in the conversion into isoflavone aglycons by diglycosidase using soybean materials", "type": "biochemical, Penicillium multicolor IAM7153", "details": "for Decomposition efficiency of glycitin family in roasted soy flour / Decomposition efficiency of glycitin family in soymilk: 55° C.", "description": "A substrate solution of 450 μL was prepared by suspending 50 mg of each soybean material (roasted soy flour (manufactured by Fuji Shokuryo K.K.), soymilk (manufactured by Gitoh Shokuhin K.K.), defatted soybean (manufactured by Fuji Seiyu K.K.), concentrated soybean protein (manufactured by Fuji Seiyu K.K.)), and adjusting the pH to 2 to 11 with hydrochloric acid or sodium hydroxide. Each enzyme solution of pH 2–11 wherein diglycosidase activity of crude diglycosidase was adjusted to 1.88 AU/mL was added thereto in an amount of 50 μL and the whole was reacted at 55° C. at the total volume of 500 μL. To the reaction mixture was added 700 μL of ethanol after 0, 1, 3, and 6 hours of the reaction. After stirring and ultrasonication, the mixture was subjected to centrifugal separation at 15,000 rpm and 4° C. for 10 minutes. The supernatant was filtered through a filter and the existence of isoflavone glycosides and aglycon isoflavones contained in the reaction mixture was detected by HLPC (Tables 15 to 26)."}
{"smiles": "COc1cc2c(=O)c(-c3ccc(O)cc3)coc2cc1O[C@@H]1O[C@H](COC(C)=O)[C@@H](O)[C@H](O)[C@H]1O", "note": "[acetylglycitin, 6″-O-acetylglycitin]", "values": [{"measurement": "Decomposition efficiency of glycitin family in concentrated soybean protein", "setting": "pH1.6, heat treatment of enzyme: no, reaction time 0 h", "value": 35.9, "unit": "%"}, {"measurement": "Decomposition efficiency of glycitin family in concentrated soybean protein", "setting": "pH1.6, heat treatment of enzyme: no, reaction time 1 h", "value": 35.1, "unit": "%"}, {"measurement": "Decomposition efficiency of glycitin family in concentrated soybean protein", "setting": "pH1.6, heat treatment of enzyme: no, reaction time 3 h", "value": 33.5, "unit": "%"}, {"measurement": "Decomposition efficiency of glycitin family in concentrated soybean protein", "setting": "pH1.6, heat treatment of enzyme: no, reaction time 6 h", "value": 31.8, "unit": "%"}, {"measurement": "Decomposition efficiency of glycitin family in concentrated soybean protein", "setting": "pH1.6, heat treatment of enzyme: yes, reaction time 6 h", "value": 30.9, "unit": "%"}, {"measurement": "Decomposition efficiency of glycitin family in roasted soy flour", "setting": "pH2, heat treatment of enzyme no, reaction time 0 h", "value": 35.3}, {"measurement": "Decomposition efficiency of glycitin family in roasted soy flour", "setting": "pH2, heat treatment of enzyme no, reaction time 1 h", "value": 34.0}, {"measurement": "Decomposition efficiency of glycitin family in roasted soy flour", "setting": "pH2, heat treatment of enzyme no, reaction time 3 h", "value": 34.2}, {"measurement": "Decomposition efficiency of glycitin family in roasted soy flour", "setting": "pH2, heat treatment of enzyme no, reaction time 6 h", "value": 35.5}, {"measurement": "Decomposition efficiency of glycitin family in roasted soy flour", "setting": "pH2, heat treatment of enzyme yes, reaction time 6 h", "value": 35.2}, {"measurement": "Decomposition efficiency of glycitin family in soymilk", "setting": "pH2.3, heat treatment of enzyme no, reaction time 0 h", "value": "not detected"}, {"measurement": "Decomposition efficiency of glycitin family in soymilk", "setting": "pH2.3, heat treatment of enzyme no, reaction time 1 h", "value": "not detected"}, {"measurement": "Decomposition efficiency of glycitin family in soymilk", "setting": "pH2.3, heat treatment of enzyme no, reaction time 3 h", "value": "not detected"}, {"measurement": "Decomposition efficiency of glycitin family in soymilk", "setting": "pH2.3, heat treatment of enzyme no, reaction time 6 h", "value": "not detected"}, {"measurement": "Decomposition efficiency of glycitin family in soymilk", "setting": "pH2.3, heat treatment of enzyme yes, reaction time 6 h", "value": "not detected"}, {"measurement": "Decomposition efficiency of glycitin family in defatted soybean", "setting": "pH2.6, heat treatment of enzyme: no, reaction time 0 h", "value": "not detected"}, {"measurement": "Decomposition efficiency of glycitin family in defatted soybean", "setting": "pH2.6, heat treatment of enzyme: no, reaction time 1 h", "value": "not detected"}, {"measurement": "Decomposition efficiency of glycitin family in defatted soybean", "setting": "pH2.6, heat treatment of enzyme: no, reaction time 3 h", "value": "not detected"}, {"measurement": "Decomposition efficiency of glycitin family in defatted soybean", "setting": "pH2.6, heat treatment of enzyme: no, reaction time 6 h", "value": "not detected"}, {"measurement": "Decomposition efficiency of glycitin family in defatted soybean", "setting": "pH2.6, heat treatment of enzyme: yes, reaction time 6 h", "value": "not detected"}, {"measurement": "Decomposition efficiency of glycitin family in concentrated soybean protein", "setting": "pH2.7, heat treatment of enzyme: no, reaction time 0 h", "value": 35.9, "unit": "%"}, {"measurement": "Decomposition efficiency of glycitin family in concentrated soybean protein", "setting": "pH2.7, heat treatment of enzyme: no, reaction time 1 h", "value": 36.6, "unit": "%"}, {"measurement": "Decomposition efficiency of glycitin family in concentrated soybean protein", "setting": "pH2.7, heat treatment of enzyme: no, reaction time 3 h", "value": 36.5, "unit": "%"}, {"measurement": "Decomposition efficiency of glycitin family in concentrated soybean protein", "setting": "pH2.7, heat treatment of enzyme: no, reaction time 6 h", "value": 36.6, "unit": "%"}, {"measurement": "Decomposition efficiency of glycitin family in concentrated soybean protein", "setting": "pH2.7, heat treatment of enzyme: yes, reaction time 6 h", "value": 35.4, "unit": "%"}, {"measurement": "Decomposition efficiency of glycitin family in roasted soy flour", "setting": "pH3, heat treatment of enzyme no, reaction time 0 h", "value": 35.3}, {"measurement": "Decomposition efficiency of glycitin family in roasted soy flour", "setting": "pH3, heat treatment of enzyme no, reaction time 1 h", "value": 38.7}, {"measurement": "Decomposition efficiency of glycitin family in roasted soy flour", "setting": "pH3, heat treatment of enzyme no, reaction time 3 h", "value": 30.8}, {"measurement": "Decomposition efficiency of glycitin family in roasted soy flour", "setting": "pH3, heat treatment of enzyme no, reaction time 6 h", "value": 31.7}, {"measurement": "Decomposition efficiency of glycitin family in roasted soy flour", "setting": "pH3, heat treatment of enzyme yes, reaction time 6 h", "value": 35.6}, {"measurement": "Decomposition efficiency of glycitin family in defatted soybean", "setting": "pH3.4, heat treatment of enzyme: no, reaction time 0 h", "value": "not detected"}, {"measurement": "Decomposition efficiency of glycitin family in defatted soybean", "setting": "pH3.4, heat treatment of enzyme: no, reaction time 1 h", "value": "not detected"}, {"measurement": "Decomposition efficiency of glycitin family in defatted soybean", "setting": "pH3.4, heat treatment of enzyme: no, reaction time 3 h", "value": "not detected"}, {"measurement": "Decomposition efficiency of glycitin family in defatted soybean", "setting": "pH3.4, heat treatment of enzyme: no, reaction time 6 h", "value": "not detected"}, {"measurement": "Decomposition efficiency of glycitin family in defatted soybean", "setting": "pH3.4, heat treatment of enzyme: yes, reaction time 6 h", "value": "not detected"}, {"measurement": "Decomposition efficiency of glycitin family in soymilk", "setting": "pH3.5, heat treatment of enzyme no, reaction time 0 h", "value": "not detected"}, {"measurement": "Decomposition efficiency of glycitin family in soymilk", "setting": "pH3.5, heat treatment of enzyme no, reaction time 1 h", "value": "not detected"}, {"measurement": "Decomposition efficiency of glycitin family in soymilk", "setting": "pH3.5, heat treatment of enzyme no, reaction time 3 h", "value": "not detected"}, {"measurement": "Decomposition efficiency of glycitin family in soymilk", "setting": "pH3.5, heat treatment of enzyme no, reaction time 6 h", "value": "not detected"}, {"measurement": "Decomposition efficiency of glycitin family in soymilk", "setting": "pH3.5, heat treatment of enzyme yes, reaction time 6 h", "value": "not detected"}, {"measurement": "Decomposition efficiency of glycitin family in concentrated soybean protein", "setting": "pH3.7, heat treatment of enzyme: no, reaction time 0 h", "value": 36.1, "unit": "%"}, {"measurement": "Decomposition efficiency of glycitin family in concentrated soybean protein", "setting": "pH3.7, heat treatment of enzyme: no, reaction time 1 h", "value": 32.9, "unit": "%"}, {"measurement": "Decomposition efficiency of glycitin family in concentrated soybean protein", "setting": "pH3.7, heat treatment of enzyme: no, reaction time 3 h", "value": 26.1, "unit": "%"}, {"measurement": "Decomposition efficiency of glycitin family in concentrated soybean protein", "setting": "pH3.7, heat treatment of enzyme: no, reaction time 6 h", "value": 22.1, "unit": "%"}, {"measurement": "Decomposition efficiency of glycitin family in concentrated soybean protein", "setting": "pH3.7, heat treatment of enzyme: yes, reaction time 6 h", "value": 35.9, "unit": "%"}, {"measurement": "Decomposition efficiency of glycitin family in roasted soy flour", "setting": "pH4, heat treatment of enzyme no, reaction time 0 h", "value": 34.8}, {"measurement": "Decomposition efficiency of glycitin family in roasted soy flour", "setting": "pH4, heat treatment of enzyme no, reaction time 1 h", "value": 18.8}, {"measurement": "Decomposition efficiency of glycitin family in roasted soy flour", "setting": "pH4, heat treatment of enzyme no, reaction time 3 h", "value": 8.2}, {"measurement": "Decomposition efficiency of glycitin family in roasted soy flour", "setting": "pH4, heat treatment of enzyme no, reaction time 6 h", "value": "not detected"}, {"measurement": "Decomposition efficiency of glycitin family in roasted soy flour", "setting": "pH4, heat treatment of enzyme yes, reaction time 6 h", "value": 35.9}, {"measurement": "Decomposition efficiency of glycitin family in soymilk", "setting": "pH4.8, heat treatment of enzyme no, reaction time 0 h", "value": "not detected"}, {"measurement": "Decomposition efficiency of glycitin family in soymilk", "setting": "pH4.8, heat treatment of enzyme no, reaction time 1 h", "value": "not detected"}, {"measurement": "Decomposition efficiency of glycitin family in soymilk", "setting": "pH4.8, heat treatment of enzyme no, reaction time 3 h", "value": "not detected"}, {"measurement": "Decomposition efficiency of glycitin family in soymilk", "setting": "pH4.8, heat treatment of enzyme no, reaction time 6 h", "value": "not detected"}, {"measurement": "Decomposition efficiency of glycitin family in soymilk", "setting": "pH4.8, heat treatment of enzyme yes, reaction time 6 h", "value": "not detected"}, {"measurement": "Decomposition efficiency of glycitin family in defatted soybean", "setting": "pH4.8, heat treatment of enzyme: no, reaction time 0 h", "value": "not detected"}, {"measurement": "Decomposition efficiency of glycitin family in defatted soybean", "setting": "pH4.8, heat treatment of enzyme: no, reaction time 1 h", "value": "not detected"}, {"measurement": "Decomposition efficiency of glycitin family in defatted soybean", "setting": "pH4.8, heat treatment of enzyme: no, reaction time 3 h", "value": "not detected"}, {"measurement": "Decomposition efficiency of glycitin family in defatted soybean", "setting": "pH4.8, heat treatment of enzyme: no, reaction time 6 h", "value": "not detected"}, {"measurement": "Decomposition efficiency of glycitin family in defatted soybean", "setting": "pH4.8, heat treatment of enzyme: yes, reaction time 6 h", "value": "not detected"}]}
